Patent publication US20210045385A1, “PYRIDAZINONE-SUBSTITUTED KETOXIMES AS HERBICIDES” (FMC Corporation, priority 2018, published 2021)

Tests used:
Assay type in all cases: in vivo
[1] = test system: Italian ryegrass (Lolium mutiflorum); assay: Test C preemergence, visual plant response rating; details: Test C, 0 is no effect, 100 is complete control
Outline: (§1)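 Visual injury on a 0 (no effect) to 100 (complete control) scale versus untreated controls, scored approximately 10 d after treatment under greenhouse conditions. Treatments used surfactant-containing non-phytotoxic solvent formulations, sprayed onto loam–sand soil preemergence or onto one- to two-leaf plants 2–10 cm tall postemergence.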

[2] = test system: barnyardgrass (Echinochloa crus-galli); assay: Test C preemergence, visual plant response rating; details: Test C, 0 is no effect, 100 is complete control
Outline: as §1

[3] = test system: foxtail, giant (giant foxtail, Setaria faberi); assay: Test C preemergence, visual plant response rating; details: Test C, 0 is no effect, 100 is complete control
Outline: as §1

kochia (Bassia scoparia) [4] = assay: Test C preemergence, visual plant response rating; details: Test C, 0 is no effect, 100 is complete control
Outline: as §1

[5] = test system: pigweed (Amaranthus retroflexus); assay: Test C preemergence, visual plant response rating; details: Test C, 0 is no effect, 100 is complete control
Outline: as §1

[6] = test system: ragweed (common ragweed, Ambrosia artemisiifolia); assay: Test C preemergence, visual plant response rating; details: Test C, 0 is no effect, 100 is complete control
Outline: as §1

[7] = test system: Italian ryegrass (Lolium mutiflorum); assay: Test C postemergence, visual plant response rating
Outline: as §1

[8] = test system: barnyardgrass (Echinochloa crus-galli); assay: Test C postemergence, visual plant response rating
Outline: as §1

[9] = test system: blackgrass (Alopecurus myosuroides); assay: Test C postemergence, visual plant response rating
Outline: as §1

corn (Zea mays) = assay: Test C postemergence, visual plant response rating
Outline: as §1

[10] = test system: foxtail, giant (giant foxtail, Setaria faberi); assay: Test C postemergence, visual plant response rating
Outline: as §1

[11] = test system: galium (catchweed bedstraw, Galium aparine); assay: Test C postemergence, visual plant response rating
Outline: as §1

kochia (Bassia scoparia) [12] = assay: Test C postemergence, visual plant response rating
Outline: as §1

[13] = test system: pigweed (Amaranthus retroflexus); assay: Test C postemergence, visual plant response rating
Outline: as §1

[14] = test system: ragweed (common ragweed, Ambrosia artemisiifolia); assay: Test C postemergence, visual plant response rating
Outline: as §1

[15] = test system: wheat (Triticum aestivum); assay: Test C postemergence, visual plant response rating
Outline: as §1

[16] = test system: barnyardgrass (Echinochloa crus-galli); assay: Test D flooded paddy test, visual plant response rating; details: 250 g ai/ha, scale 0 to 100 (0 no effect, 100 complete control), 13 to 15 d
Outline: (§2)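 Visual injury scores, 0 (no effect) to 100 (complete control), were assigned after 13 to 15 d in the greenhouse by comparison with controls. Test compounds had been added to paddy water covering soil by 3 cm at the 2-leaf stage.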

[17] = test system: duck salad (Heteranthera limosa); assay: as above; details: 250 g ai/ha, scale 0 to 100 (0 no effect, 100 complete control), 13 to 15 d
Outline: as §2

rice (Oryza sativa) = assay: as above; details: 250 g ai/ha, scale 0 to 100 (0 no effect, 100 complete control), 13 to 15 d
Outline: as §2

[18] = test system: sedge umbrella (small-flower umbrella sedge, Cyperus difformis); assay: as above; details: 250 g ai/ha, scale 0 to 100 (0 no effect, 100 complete control), 13 to 15 d
Outline: as §2

[19] = Test C, postemergence, 125 g ai/ha

SMILES | Ryegrass, Italian plant response rating (0 to 100 scale) ([1]; 31 g ai/ha) | Ryegrass, Italian plant response rating (0 to 100 scale) ([1]; 125 g ai/ha) | Barnyardgrass plant response rating (0 to 100 scale) ([2]; 31 g ai/ha) | Barnyardgrass plant response rating (0 to 100 scale) ([2]; 125 g ai/ha) | Foxtail, Giant plant response rating (0 to 100 scale) ([3]; 31 g ai/ha) | Foxtail, Giant plant response rating (0 to 100 scale) ([3]; 125 g ai/ha) | Kochia plant response rating (0 to 100 scale) (kochia (Bassia scoparia) [4]; 31 g ai/ha) | Kochia plant response rating (0 to 100 scale) (kochia (Bassia scoparia) [4]; 125 g ai/ha) | Pigweed plant response rating (0 to 100 scale) ([5]; 31 g ai/ha) | Pigweed plant response rating (0 to 100 scale) ([5]; 125 g ai/ha) | Ragweed plant response rating (0 to 100 scale) ([6]; 31 g ai/ha) | Ragweed plant response rating (0 to 100 scale) ([6]; 125 g ai/ha) | Ryegrass, Italian plant response rating (0 to 100 scale) ([7]; Postemergence, 31 g ai/ha) | Ryegrass, Italian plant response rating (0 to 100 scale) [7, 19] | Barnyardgrass plant response rating (0 to 100 scale) ([8]; Postemergence, 31 g ai/ha) | Barnyardgrass plant response rating (0 to 100 scale) [8, 19] | Blackgrass plant response rating (0 to 100 scale) ([9]; Postemergence, 31 g ai/ha) | Blackgrass plant response rating (0 to 100 scale) [9, 19] | Corn plant response rating (0 to 100 scale) (corn (Zea mays); Postemergence, 31 g ai/ha) | Corn plant response rating (0 to 100 scale) (corn (Zea mays); [19]) | other results
CO/N=C(\c1c(O)c(C)nn(C)c1=O)c1cccc2cc(Cl)ccc12 [Compound 300] | 10 | 70 | 40 | 60 | 40 | 80 | 0 | 30 | 30 | 90 | 0 | 20 | 10 | 40 | 30 | 70 | 30 | 80 | 10 | 30 | Foxtail, Giant plant response rating (0 to 100 scale) ([10]; Postemergence, 31 g ai/ha): 60; Foxtail, Giant plant response rating (0 to 100 scale) [10, 19]: 80; Galium plant response rating (0 to 100 scale) ([11]; Postemergence, 31 g ai/ha): 90; Galium plant response rating (0 to 100 scale) [11, 19]: 100; Kochia plant response rating (0 to 100 scale) (kochia (Bassia scoparia) [12]; Postemergence, 31 g ai/ha): 40; Kochia plant response rating (0 to 100 scale) (kochia (Bassia scoparia) [12]; [19]): 50; Pigweed plant response rating (0 to 100 scale) ([13]; Postemergence, 31 g ai/ha): 80; Pigweed plant response rating (0 to 100 scale) [13, 19]: 80; Ragweed plant response rating (0 to 100 scale) ([14]; Postemergence, 31 g ai/ha): 30; Ragweed plant response rating (0 to 100 scale) [14, 19]: 90; Wheat plant response rating (0 to 100 scale) ([15]; Postemergence, 31 g ai/ha): 0; Wheat plant response rating (0 to 100 scale) [15, 19]: 0; Plant response rating, Barnyardgrass (Flood) [16]: 15; Plant response rating, Ducksalad (Flood) [17]: 55; Plant response rating, Rice (Flood) (rice (Oryza sativa)): 20; Plant response rating, Sedge, Umbrella (Flood) [18]: 45
CC(C)O/N=C(/c1c(O)c(Cl)nn(C)c1=O)c1ccc(F)c2ccccc12 [Compound 209] | 10 | 30 | 50 | 80 | 80 | 100 | 0 | 40 | 20 | 100 | 90 | 90 | 10 | 40 | 50 | 80 | 10 | 30 | 10 | 20 | Foxtail, Giant plant response rating (0 to 100 scale) ([10]; Postemergence, 31 g ai/ha): 70; Foxtail, Giant plant response rating (0 to 100 scale) [10, 19]: 90; Galium plant response rating (0 to 100 scale) ([11]; Postemergence, 31 g ai/ha): 90; Galium plant response rating (0 to 100 scale) [11, 19]: 100; Kochia plant response rating (0 to 100 scale) (kochia (Bassia scoparia) [12]; Postemergence, 31 g ai/ha): 10; Kochia plant response rating (0 to 100 scale) (kochia (Bassia scoparia) [12]; [19]): 40; Pigweed plant response rating (0 to 100 scale) ([13]; Postemergence, 31 g ai/ha): 50; Pigweed plant response rating (0 to 100 scale) [13, 19]: 90; Ragweed plant response rating (0 to 100 scale) ([14]; Postemergence, 31 g ai/ha): 90; Ragweed plant response rating (0 to 100 scale) [14, 19]: 90; Wheat plant response rating (0 to 100 scale) ([15]; Postemergence, 31 g ai/ha): 0; Wheat plant response rating (0 to 100 scale) [15, 19]: 0; Plant response rating, Barnyardgrass (Flood) [16]: 0; Plant response rating, Ducksalad (Flood) [17]: 50; Plant response rating, Rice (Flood) (rice (Oryza sativa)): 0; Plant response rating, Sedge, Umbrella (Flood) [18]: 80
Cc1nn(C)c(=O)c(/C(=N/OCCO)c2cccc3cc(Cl)ccc23)c1O [Compound 240] | 0 | 0 | 0 | 0 | 10 | 80 | 0 | 0 | 50 | 100 | 0 | 10 | 0 | 0 | 0 | 20 | 0 | 10 | 0 | 0 | Foxtail, Giant plant response rating (0 to 100 scale) ([10]; Postemergence, 31 g ai/ha): 0; Foxtail, Giant plant response rating (0 to 100 scale) [10, 19]: 0; Galium plant response rating (0 to 100 scale) ([11]; Postemergence, 31 g ai/ha): 20; Galium plant response rating (0 to 100 scale) [11, 19]: 50; Kochia plant response rating (0 to 100 scale) (kochia (Bassia scoparia) [12]; Postemergence, 31 g ai/ha): 0; Kochia plant response rating (0 to 100 scale) (kochia (Bassia scoparia) [12]; [19]): 0; Pigweed plant response rating (0 to 100 scale) ([13]; Postemergence, 31 g ai/ha): 70; Pigweed plant response rating (0 to 100 scale) [13, 19]: 80; Ragweed plant response rating (0 to 100 scale) ([14]; Postemergence, 31 g ai/ha): 0; Ragweed plant response rating (0 to 100 scale) [14, 19]: 0; Wheat plant response rating (0 to 100 scale) ([15]; Postemergence, 31 g ai/ha): 0; Wheat plant response rating (0 to 100 scale) [15, 19]: 0; Plant response rating, Barnyardgrass (Flood) [16]: 15; Plant response rating, Ducksalad (Flood) [17]: 0; Plant response rating, Rice (Flood) (rice (Oryza sativa)): 0; Plant response rating, Sedge, Umbrella (Flood) [18]: 0
